# Assay results reported in ChEMBL document CHEMBL3046949, “New molecular scaffolds for the design of Alzheimers acetylcholinesterase inhibitors identified using ligand- and receptor-based virtual screening” (Med Chem Res, 2013).
# Molecular target: Acetylcholinesterase (Homo sapiens, UniProt P22303)
# Sequence (P22303 whole entry): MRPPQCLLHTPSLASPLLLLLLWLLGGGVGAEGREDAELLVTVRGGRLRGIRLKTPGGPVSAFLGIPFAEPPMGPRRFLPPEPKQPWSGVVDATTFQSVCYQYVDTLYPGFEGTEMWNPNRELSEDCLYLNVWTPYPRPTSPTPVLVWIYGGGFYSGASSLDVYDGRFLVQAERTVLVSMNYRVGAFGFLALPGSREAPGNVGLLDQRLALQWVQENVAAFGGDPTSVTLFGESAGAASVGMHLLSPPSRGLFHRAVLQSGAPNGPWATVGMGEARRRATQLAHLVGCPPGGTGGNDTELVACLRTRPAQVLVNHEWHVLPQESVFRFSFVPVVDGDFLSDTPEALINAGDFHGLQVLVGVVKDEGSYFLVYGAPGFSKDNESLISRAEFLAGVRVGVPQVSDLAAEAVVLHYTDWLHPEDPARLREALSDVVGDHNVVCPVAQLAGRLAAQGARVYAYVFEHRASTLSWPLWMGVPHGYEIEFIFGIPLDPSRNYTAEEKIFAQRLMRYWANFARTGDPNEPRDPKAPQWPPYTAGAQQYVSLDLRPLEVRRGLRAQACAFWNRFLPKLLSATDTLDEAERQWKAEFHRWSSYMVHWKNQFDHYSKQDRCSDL
# Description: Binding affinity to acetylcholinesterase (unknown origin)
row,Structure (SMILES),Ki
1,COc1cc2c(cc1OC)C(=O)C(Oc1ccc(CN3CCOCC3)cc1)C2 (stereo not drawn),0.514 µM
2,CCN(C)Cc1ccc(/C=C2\Cc3cc(OC)c(OC)cc3C2=O)cc1,0.92 µM
3,COc1cc2c(cc1OC)C(=O)C(Oc1ccc(CN3CCN(C)CC3)cc1)C2 (stereo not drawn),0.0695 µM
4,COc1cc2c(cc1OC)C(=O)C(Oc1ccc(C(C)N(C)C)cc1)C2 (stereo not drawn),0.543 µM
5,N/C(=N\OC(=O)c1cnn(-c2ccc([N+](=O)[O-])cc2)c1C(F)(F)F)c1ccc(Cl)cc1,2.35 µM
6,COc1cc2c(cc1OC)C(=O)C(Oc1cccc(C(C)N3CCOCC3)c1)C2 (stereo not drawn),0.118 µM
7,CCN(CC)C(C)c1cccc(OC2Cc3cc(OC)c(OC)cc3C2=O)c1 (stereo not drawn),0.865 µM
8,COc1cc2c(cc1OC)C(=O)C(Oc1cccc(CN3CCCCC3)c1)C2 (stereo not drawn),0.266 µM
9,COc1cc2c(cc1OC)C(=O)C(Oc1ccc(C(C)N3CCN(C)CC3)cc1)C2 (stereo not drawn),0.228 µM
10,CCN(CC)Cc1ccc(/C=C2\Cc3cc(OC)c(OC)cc3C2=O)cc1,0.453 µM
11,COc1cc2c(cc1OC)C(=O)C(Oc1cccc(C(C)N3CCCC3)c1)C2 (stereo not drawn),0.138 µM
12,COc1cc2c(cc1OC)C(=O)C(Cc1cccc(CN(C)C)c1)C2 (stereo not drawn),0.525 µM
13,CCN(CC)Cc1cccc(OC2Cc3cc(OC)c(OC)cc3C2=O)c1 (stereo not drawn),1.59 µM
14,CC(CN1CCN(Cc2ccccc2)CC1)N(C(=O)c1cccc([N+](=O)[O-])c1)c1ccccn1 (stereo not drawn),0.0614 µM
15,N/C(=N\OC(=O)c1cnn(-c2ccc([N+](=O)[O-])cc2)c1C(F)(F)F)c1ccc(C(F)(F)F)cc1,2.07 µM
16,COc1cc2c(cc1OC)C(=O)C(Oc1cccc(CN(C)C)c1)C2 (stereo not drawn),1 µM
17,COc1cc2c(cc1OC)C(=O)C(Oc1ccc(C(C)N3CCOCC3)cc1)C2 (stereo not drawn),0.217 µM
18,O=C(CC1S/C(=N/c2ccc(C3CCCCC3)cc2)NC1=O)Nc1ccc(OC(F)(F)F)cc1 (stereo not drawn),0.897 µM
19,Cc1c(S(=O)(=O)c2ccc(Cl)cc2)csc1C(=O)NC1CCN(Cc2ccccc2)CC1,0.0213 µM

row,Structure (SMILES),Ki
1,COc1cc2c(cc1OC)C(=O)/C(=C/c1ccc(CN(C)C)cc1)C2,0.617 µM
2,CCN(C)Cc1cccc(CC2Cc3cc(OC)c(OC)cc3C2=O)c1 (stereo not drawn),0.507 µM
3,CCN(CC)Cc1cccc(CC2Cc3cc(OC)c(OC)cc3C2=O)c1 (stereo not drawn),0.0217 µM
4,COc1cc2c(cc1OC)C(=O)C(Cc1ccc(CN3CCCCC3)cc1)C2 (stereo not drawn),0.0738 µM
5,O=C(Nc1ccc(OC(F)(F)F)cc1)OC1CN(C(c2ccccc2)c2ccccc2)C1,0.0228 µM
6,COc1cc2c(cc1OC)C(=O)C(Oc1cccc(C(C)N3CCCCC3)c1)C2 (stereo not drawn),0.0382 µM
7,COc1cc2c(cc1OC)C(=O)C(Oc1ccc(CN3CCCCC3)cc1)C2 (stereo not drawn),0.403 µM
8,O=[N+]([O-])c1ccc(OCC(O)CN2CCCN(c3nc4ccc(Cl)cc4s3)CC2)cc1 (stereo not drawn),0.263 µM
9,CCN(CC)Cc1ccc(OC2Cc3cc(OC)c(OC)cc3C2=O)cc1 (stereo not drawn),1.34 µM
10,COc1cc2c(cc1OC)C(=O)C(Cc1cccc(CN3CCCC3)c1)C2 (stereo not drawn),0.0223 µM
11,O=C(CN1CCN(Cc2ccccc2)CC1)Nc1ccc(C(F)(F)F)cc1Cl,0.0473 µM
12,CCN(C)Cc1ccc(CC2Cc3cc(OC)c(OC)cc3C2=O)cc1 (stereo not drawn),0.918 µM
13,COc1cc2c(cc1OC)C(=O)/C(=C/c1cccc(CN(C)C)c1)C2,0.0622 µM
14,COc1cc2c(cc1OC)C(=O)C(Oc1ccc(CN(C)C)cc1)C2 (stereo not drawn),0.209 µM
15,CCN(CC)Cc1cccc(/C=C2\Cc3cc(OC)c(OC)cc3C2=O)c1,0.237 µM
16,COc1ccc(C(=O)NC2CCN(Cc3c(F)cccc3Cl)CC2)cc1OC,0.0548 µM
17,COc1cc2c(cc1OC)C(=O)C(Oc1ccc(C(C)N3CCCC3)cc1)C2 (stereo not drawn),0.403 µM
18,CCN(CC)Cc1ccc(CC2Cc3cc(OC)c(OC)cc3C2=O)cc1 (stereo not drawn),1.04 µM
19,COc1cc2c(cc1OC)C(=O)C(Oc1cccc(C(C)N(C)C)c1)C2 (stereo not drawn),0.4 µM

row,Structure (SMILES),Ki
1,CC(C)(C)c1ccc(/C(N)=N/OC(=O)c2cnn(-c3ccc([N+](=O)[O-])cc3)c2C(F)(F)F)cc1,0.521 µM
2,COc1cc2c(cc1OC)C(=O)/C(=C/c1cccc(CN3CCCCC3)c1)C2,0.0709 µM
3,COc1cc2c(cc1OC)C(=O)C(Oc1ccc(C(C)N3CCCCC3)cc1)C2 (stereo not drawn),0.106 µM
4,CSc1cccc(/N=C2\NC(=O)C(CC(=O)Nc3ccc(F)c(F)c3)S2)c1 (stereo not drawn),0.13 µM
5,O=C(NC1CCN(Cc2ccccc2)CC1)c1ccc2c(c1)OCCCO2,0.0953 µM
6,COc1cc2c(cc1OC)C(=O)/C(=C/c1ccc(CN3CCCCC3)cc1)C2,0.0952 µM
7,COc1cc2c(cc1OC)C(=O)C(Cc1cccc(CN3CCCCC3)c1)C2 (stereo not drawn),0.0593 µM
8,COc1cc2c(cc1OC)C(=O)C(Cc1ccc(CN3CCCC3)cc1)C2 (stereo not drawn),0.773 µM
9,CCN(C)Cc1cccc(/C=C2\Cc3cc(OC)c(OC)cc3C2=O)c1,0.235 µM
10,COc1cc2c(cc1OC)C(=O)/C(=C/c1cccc(CN3CCCC3)c1)C2,0.127 µM
11,CCN(CC)C(C)c1ccc(OC2Cc3cc(OC)c(OC)cc3C2=O)cc1 (stereo not drawn),1.33 µM
12,COc1cc2c(cc1OC)C(=O)/C(=C/c1ccc(CN3CCCC3)cc1)C2,0.198 µM
13,COc1cc2c(cc1OC)C(=O)C(Oc1cccc(CN3CCOCC3)c1)C2 (stereo not drawn),0.793 µM
14,O=c1c(Cl)c(N2CCN(c3ccc(C(F)(F)F)cn3)CC2)cnn1-c1c(Cl)cc(C(F)(F)F)cc1Cl,2.87 µM
15,O=C(Nc1ccc(OC(F)(F)F)cc1)N1CCCN(CCc2ccccc2)CC1,0.241 µM
16,COc1cc2c(cc1OC)C(=O)C(Oc1cccc(CN3CCN(C)CC3)c1)C2 (stereo not drawn),0.0621 µM
17,COc1cc2c(cc1OC)C(=O)C(Oc1cccc(C(C)N3CCN(C)CC3)c1)C2 (stereo not drawn),0.0777 µM
18,COc1cc2c(cc1OC)C(=O)C(Oc1ccc(CN3CCCC3)cc1)C2 (stereo not drawn),0.257 µM

# Molecular target: T1, Acetylcholinesterase (Rattus norvegicus, UniProt P37136)
# T1 sequence (P37136 whole entry): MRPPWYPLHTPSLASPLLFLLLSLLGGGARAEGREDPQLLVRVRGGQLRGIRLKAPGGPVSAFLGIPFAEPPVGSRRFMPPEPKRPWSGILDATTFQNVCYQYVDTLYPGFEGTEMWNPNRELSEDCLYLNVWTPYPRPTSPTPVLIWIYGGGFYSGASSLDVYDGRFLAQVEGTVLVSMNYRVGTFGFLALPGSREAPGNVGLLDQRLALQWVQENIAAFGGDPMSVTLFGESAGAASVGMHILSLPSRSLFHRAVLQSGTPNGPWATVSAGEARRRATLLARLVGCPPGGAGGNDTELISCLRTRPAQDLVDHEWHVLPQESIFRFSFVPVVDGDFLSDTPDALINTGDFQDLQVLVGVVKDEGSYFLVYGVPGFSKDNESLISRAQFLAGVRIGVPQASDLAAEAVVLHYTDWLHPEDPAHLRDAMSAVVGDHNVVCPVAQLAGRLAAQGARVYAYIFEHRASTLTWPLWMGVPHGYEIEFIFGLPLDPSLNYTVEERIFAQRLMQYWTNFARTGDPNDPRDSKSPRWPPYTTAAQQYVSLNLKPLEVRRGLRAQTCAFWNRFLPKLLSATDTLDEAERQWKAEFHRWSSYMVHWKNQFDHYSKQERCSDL
# Description: Inhibition of acetylcholinesterase in Rattus norvegicus (rat) cortex by Ellman method
row,Structure (SMILES),IC50
1,CCN(C)Cc1ccc(/C=C2\Cc3cc(OC)c(OC)cc3C2=O)cc1,0.263 µM
2,COc1cc2c(cc1OC)C(=O)C(Cc1ccc(CN3CCCCC3)cc1)C2 (stereo not drawn),0.123 µM
3,CCN(CC)Cc1cccc(/C=C2\Cc3cc(OC)c(OC)cc3C2=O)c1,0.447 µM
4,COc1cc2c(cc1OC)C(=O)/C(=C/c1cccc(CN3CCCCC3)c1)C2,0.162 µM
5,COc1cc2c(cc1OC)C(=O)/C(=C/c1ccc(CN3CCCCC3)cc1)C2,0.102 µM
6,COc1cc2c(cc1OC)C(=O)C(Cc1ccc(CN3CCCC3)cc1)C2 (stereo not drawn),0.155 µM
7,COc1cc2c(cc1OC)C(=O)/C(=C/c1cccc(CN3CCCC3)c1)C2,0.234 µM
